Test results taken from article PMC7397269, “Synthesis and Evaluation of New Coumarin Derivatives as Antioxidant, Antimicrobial, and Anti-Inflammatory Agents” (Molecules, 2020).
In brackets after ≈: the same amount, converted by molar mass. Several values for one entry are separate records, joined by “and”; a condition that tells them apart may be missing. Identical values can stand only once. Like-named read-outs stand apart in the source and are kept apart here.

Legend:
[1] = system: Bacillus subtilis ATCC 6633; assay: Agar well diffusion, B. subtilis; type: cell-based; conditions: ATCC6633, 100 μL of 10 mg/mL in DMSO, read-out: diameter of inhibition zone, BS
Source text: (§1) The new molecules were individually tested for their antimicrobial activity in vitro against standard bacteria strains from the American Type Culture Collection (ATCC), namely, Staphylococcus aureus ATCC 29213, Bacillus subtilis ATCC 6633, Bacillus megaterium ATCC 9885 (Gram-positive), Escherichia coli ATCC 2592, and Pseudomonas aeruginosa ATCC 27,953 (Gram-negative). The compounds were also microbiologically tested against locally isolated Saccharomyces cerevisiae (yeast) and the standard Agricultural Research Service Culture Collection (NRRL) strain of the yeast-like pathogenic fungus Candida albicans NRRL Y-477. Primary screening was conducted using the agar well diffusion method using nutrient agar (NA) medium and Sabourand dextrose agar (SDA) medium for the tested pathological bacteria and yeast, respectively. […].
(§2) Antimicrobial tests were conducted via the agar well diffusion method using 100 μL of suspension containing 1 × 10^8 CFU/mL pathological tested bacteria and 1 × 10^6 CFU/mL yeast spread on NA and SDA, respectively. After the media cooled and solidified, wells (10 mm in diameter) were made in the solidified agar and loaded with 100 μL of the tested compound solution prepared by dissolving 10 mg of the chemical compound in 1 mL dimethyl sulfoxide (DMSO). The inoculated plates were then incubated for 24 h at 37 °C for bacteria and yeast growth. DMSO served as negative control. Ciprofloxacin (10 mg/mL) and ketoconazole (10 mg/mL) were used as standards for antibacterial and antifungal activity, respectively. After incubation, antimicrobial activity was evaluated by measuring the zone of inhibition against the test organisms and compared with that of the standard. Antimicrobial activities were expressed as the diameter of the inhibition zone (IZ) in mm. The experiment was carried out in triplicate and the average zone of inhibition was calculated.

[2] = system: Staphylococcus aureus ATCC 29213; assay: Agar well diffusion, S. aureus; type: cell-based; conditions: ATCC29213, 100 μL of 10 mg/mL in DMSO, read-out: diameter of inhibition zone, SA
Source text: as §1, §2

[3] = DPPH antioxidant assay (radical scavenging); type: biochemical; conditions: mean ± SD (n = 3)
Method: The antioxidant effects of the synthesised compounds were assessed using the 2,2-diphenyl-1-picrylhydrazyl (DPPH) antioxidant assay. Table 1 summarises the antioxidant effects of the test samples and ascorbic acid except for compound 5b because it was produced in poor yield.
The radical scavenging activity of the synthesised compounds was measured using the DPPH microplate-based method. The absorbance was measured using a microplate/cuvette reader (Spectramax M5, Molecular Devices, San Jose, CA, USA). Reference standard ascorbic acid was utilised as the positive control for this assay. Test samples were prepared at a starting concentration of 200 μg/mL after mixing with 100 μL of 0.2 mM DPPH methanolic solution. […] Samples were incubated with DPPH in the dark for 30 min at room temperature (25 °C). The methanolic DPPH solution was prepared daily and stored in a flask covered with aluminium foil. DPPH radicals have an absorption maximum (λmax) at 515 nm, at which the absorbance values were measured and converted into a percentage of antioxidant activity.
The methanolic DPPH solution without antioxidants was used as a control, and samples in methanol alone served as a background control. IC50 was determined using GraphPad Prism 7 (GraphPad Software Inc., San Diego, CA, USA). The percent inhibition was calculated using the following Equation (1):(1) % Inhibition=100−Sample Absorbance −Sample background Absorbance/DPPH only Absorbance×100
The assay was carried out in triplicate and performed as much as possible in an area protected against light. The data points are presented as the mean ± standard deviation (SD, n = 3).

trypsin = assay: Proteinase-inhibitory activity; type: biochemical; conditions: 250 µg/mL; mean ± SD (n = 3)
Method: The newly synthesised compounds were individually tested for their in vitro anti-inflammatory activity against proteinase enzyme. […] This test was performed at the Pharmacology Department, Medical Research Division, National Research Centre, Cairo, Egypt. Furthermore, compounds 2–8 were evaluated for their COX1/COX2 inhibitory activities.
The test was performed according to El-Serwy et al. with minor modifications. The reaction mixture (2 mL) contained 0.06 mg trypsin, 20 mM Tris HCl buffer (pH 7.4), and 1 mL test sample (250 µg/mL for each compound). After incubating for 5 min, 1 mL of 0.8% (w/v) casein was added. The mixture was incubated for an additional 20 min. The reaction was arrested by adding 1 mL of 10% perchloric acid. The cloudy suspension was centrifuged, and the absorbance of the supernatant was read at 280 nm. Reference standard aspirin was used as the positive control. The experiment was performed in triplicate. The percent inhibition of protein denaturation was calculated using the following Equation (2):(2) % Inhibition=100−A control −A test/A control×100 where Acontrol and Atest represent the absorbance of the control reaction without and with the sample, respectively.

COX-2 = target: T1, COX-2 (Homo sapiens, UniProt P35354); assay: COX-2 inhibition, Cayman assay kit; type: biochemical; conditions: for IC50: mean of two determinations; for SI, selectivity index (COX-1/COX-2): ratio of COX-1/COX-2 IC50
T1 construct: purchased Cayman Chemical 701080
T1 sequence (P35354 18-604): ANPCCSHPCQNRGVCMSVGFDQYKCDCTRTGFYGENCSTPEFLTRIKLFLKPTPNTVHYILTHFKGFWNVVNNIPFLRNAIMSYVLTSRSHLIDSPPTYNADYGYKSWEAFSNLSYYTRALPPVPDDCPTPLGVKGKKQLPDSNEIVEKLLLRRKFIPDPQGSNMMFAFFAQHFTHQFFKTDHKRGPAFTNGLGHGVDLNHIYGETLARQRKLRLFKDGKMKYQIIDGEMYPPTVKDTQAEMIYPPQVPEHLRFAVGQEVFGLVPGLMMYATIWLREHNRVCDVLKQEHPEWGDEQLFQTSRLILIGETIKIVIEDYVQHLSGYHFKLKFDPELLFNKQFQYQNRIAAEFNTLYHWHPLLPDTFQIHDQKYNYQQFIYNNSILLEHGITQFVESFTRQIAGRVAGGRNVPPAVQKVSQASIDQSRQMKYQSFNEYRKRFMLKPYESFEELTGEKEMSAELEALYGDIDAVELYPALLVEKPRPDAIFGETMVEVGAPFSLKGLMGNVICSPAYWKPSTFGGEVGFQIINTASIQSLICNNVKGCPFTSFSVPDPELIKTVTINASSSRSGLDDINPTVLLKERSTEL

COX-1 = target: T2, COX-1 (Homo sapiens, UniProt P23219); assay: COX-1 inhibition, Cayman assay kit; type: biochemical; conditions: mean of two determinations
T2 construct: purchased Cayman Chemical 701070
T2 sequence (P23219 24-599): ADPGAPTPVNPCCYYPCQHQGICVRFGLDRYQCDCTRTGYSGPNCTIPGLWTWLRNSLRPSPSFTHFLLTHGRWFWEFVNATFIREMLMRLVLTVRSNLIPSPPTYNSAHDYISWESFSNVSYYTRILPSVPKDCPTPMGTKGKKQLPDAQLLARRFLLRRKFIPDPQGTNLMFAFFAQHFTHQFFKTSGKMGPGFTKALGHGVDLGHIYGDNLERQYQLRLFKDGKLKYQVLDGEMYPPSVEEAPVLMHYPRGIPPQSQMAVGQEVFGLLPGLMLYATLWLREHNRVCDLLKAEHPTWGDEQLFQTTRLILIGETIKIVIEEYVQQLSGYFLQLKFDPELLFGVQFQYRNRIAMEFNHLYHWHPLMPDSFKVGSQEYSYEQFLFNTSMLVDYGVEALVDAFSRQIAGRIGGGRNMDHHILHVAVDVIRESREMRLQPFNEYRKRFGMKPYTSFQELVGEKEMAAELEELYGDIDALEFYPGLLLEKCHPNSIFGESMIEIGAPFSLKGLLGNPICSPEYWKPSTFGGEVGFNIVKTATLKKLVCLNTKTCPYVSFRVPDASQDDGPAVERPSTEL

[4] = system: Saccharomyces cerevisiae local isolate; assay: Agar well diffusion, S. cerevisiae; type: cell-based; conditions: read-out: diameter of inhibition zone, SC
Source text: as §1, §2

[5] = system: Bacillus megaterium ATCC 9885; assay: Agar well diffusion, B. megaterium; type: cell-based; conditions: Priestia megaterium, ATCC9885, 100 μL of 10 mg/mL in DMSO, read-out: diameter of inhibition zone, BM
Source text: as §1, §2

[6] = system: Pseudomonas aeruginosa ATCC 27,953; assay: Agar well diffusion, P. aeruginosa; type: cell-based; conditions: ATCC27, 100 μL of 10 mg/mL in DMSO, read-out: diameter of inhibition zone, PA
Source text: as §1, §2

[7] = system: Candida albicans NRRL Y-477; assay: Agar well diffusion, C. albicans; type: cell-based; conditions: NRRLY477, 100 μL of 10 mg/mL in DMSO, read-out: diameter of inhibition zone, CA
Source text: as §1, §2

[8] = system: Escherichia coli ATCC 2592; assay: Agar well diffusion, E. coli; type: cell-based; conditions: ATCC2592, 100 μL of 10 mg/mL in DMSO, read-out: diameter of inhibition zone, EC
Source text: as §1, §2

[9] = system: Candida albicans NRRL Y-477; assay: MIC, two-fold serial dilution, C. albicans; type: cell-based; conditions: NRRLY477, read-out: Minimum inhibitory concentration, CA
Source text: as §1
(§3) The bacteriostatic activity of the active compounds (having IZ > 16 mm) was then evaluated using the two-fold serial dilution technique. Two-fold serial dilutions of the tested compounds solutions were prepared using the proper nutrient broth to reach final concentrations of 1000, 500, 250, and 125 μg/mL. The tubes were then inoculated with the test microorganisms grown in their suitable broth at 37 °C for 24 h (1 × 10^8 CFU/mL for bacteria and 1 × 10^6 CFU/mL of yeast), 0.1 mL of the above inoculum was administered per 5 mL, and the tubes were incubated at 37 °C for 24 h. The lowest concentration showing no growth was taken as the MIC.

[10] = system: Saccharomyces cerevisiae local isolate; assay: MIC, two-fold serial dilution, S. cerevisiae; type: cell-based; conditions: two-fold serial dilution, S. cerevisiae, read-out: Minimum inhibitory concentration, SC
Source text: as §1, §3

[11] = well diffusion, 100 μL of 10 mg/mL in DMSO, S. cerevisiae

| IC50 [3] | % Inhibition (proteinase) (trypsin) [%] | MIC [9] [µg/mL] | MIC [10] [µg/mL] | Structure (SMILES) | zone of inhibition at 10000 µg/mL [1] [mm] | zone of inhibition at 10000 µg/mL [2] [mm] | IC50 (COX-2) [µM] | SI, selectivity index (COX-1/COX-2) (COX-2) | IC50 (COX-1) [µM] | zone of inhibition at 10000 µg/mL [4, 11] [mm] | zone of inhibition at 10000 µg/mL [5] [mm] | zone of inhibition at 10000 µg/mL [6] [mm] | melting point [°C] | zone of inhibition at 10000 µg/mL [7] [mm] | zone of inhibition at 10000 µg/mL [8] [mm] | zone of inhibition at 10000 µg/mL [4] [mm] |
| --- | --- | --- | --- | --- | --- | --- | --- | --- | --- | --- | --- | --- | --- | --- | --- | --- |
| 32.85 ± 1.322 µg/mL (≈ 83.4 µM) | 18.5 ± 3.47 |  |  | CC(=O)c1ccc(NS(=O)(=O)c2c(O)c3cc(Cl)ccc3oc2=O)cc1 [8e, N-(4-acetylphenyl)-6-chloro-4-hydroxy-2-oxo-2H-chromene-3-sulfonamide] | 15 | < 15 | 9.22 | 2.2 and 2.16 | 19.9 | < 15 | 16 | < 15 | 238 to 240 | < 15 | < 15 |  |
| 2.83 ± 0.166 µg/mL (≈ 16.1 µM) |  |  |  | O=C1O[C@H]([C@@H](O)CO)C(O)=C1O [Ascorbic acid, reference compound] |  |  |  |  |  |  |  |  |  |  |  |  |
|  | 45.83 ± 4.21 |  |  | CC(=O)Oc1ccccc1C(=O)O [Aspirin, reference compound] |  |  |  |  |  |  |  |  |  |  |  |  |
| 35.36 ± 3.265 µg/mL (≈ 94.7 µM) | 2.0 ± 1.4 |  |  | CC(=O)c1ccc(NS(=O)(=O)c2c(O)c3cc(C)ccc3oc2=O)cc1 [8f, N-(4-acetylphenyl)-4-hydroxy-6-methyl-2-oxo-2H-chromene-3-sulfonamide] | 15 | 16 | 25.7 | 0.3 and 0.31 | 7.92 | < 15 | 15 | < 15 | 231 to 232 | < 15 | < 15 |  |
|  |  |  |  | Cc1ccc2oc(=O)c3c(c2c1)OC(/N=C/c1ccccc1)=C(C#N)C3c1ccco1 (racemic) [5b, (±)-2-(benzylideneamino)-4-(furan-2-yl)-9-methyl-5-oxo-4H,5H-pyrano[3,2-c]chromene-3-carbonitrile] |  |  | 19.6 | 10.9 and 10.97 | 215 |  |  |  | 250 to 252 |  |  |  |
|  |  | 125 (≈ 235 µM) | 125 (≈ 235 µM) | CC(=O)N1CCN(c2ccc(OCC3COC(Cn4ccnc4)(c4ccc(Cl)cc4Cl)O3)cc2)CC1 (stereo not shown) [Ketoconazole, reference compound] | < 15 | < 15 |  |  |  | 30 | < 15 | < 15 |  | 28 | < 15 |  |

| Structure (SMILES) | IC50 [3] | % Inhibition (proteinase) (trypsin) [%] | MIC [9] [µg/mL] | MIC [10] [µg/mL] | zone of inhibition at 10000 µg/mL [1] [mm] | zone of inhibition at 10000 µg/mL [2] [mm] | IC50 (COX-2) [µM] | SI, selectivity index (COX-1/COX-2) (COX-2) | IC50 (COX-1) [µM] | zone of inhibition at 10000 µg/mL [4, 11] [mm] | zone of inhibition at 10000 µg/mL [5] [mm] | zone of inhibition at 10000 µg/mL [6] [mm] | melting point [°C] | zone of inhibition at 10000 µg/mL [7] [mm] | zone of inhibition at 10000 µg/mL [8] [mm] | zone of inhibition at 10000 µg/mL [4] [mm] |
| --- | --- | --- | --- | --- | --- | --- | --- | --- | --- | --- | --- | --- | --- | --- | --- | --- |
| Cc1ccc2oc(=O)c3c(c2c1)OC(/N=C/N(C)C)=C(C#N)C3c1ccco1 (racemic) [4b, (±)-N′-(3-cyano-4-(furan-2-yl)-9-methyl-5-oxo-4H,5H-pyrano[3,2-c]chromen-2-yl)-N,N-dimethylformimidamide] | — ((—): inactive (IC50 > 200 μg/mL)) | 33.17 ± 2.79 |  |  | < 15 | 16 | 25.2 | 2.28 | 57.5 |  | < 15 | 15 | 273 to 275 | < 15 | 15 | < 15 |
| Cc1ccc2oc(=O)c3c(c2c1)OC(/N=C/N(C)C)=C(C#N)C3c1ccc([N+](=O)[O-])cc1 (racemic) [4a, (±)-N′-(3-cyano-9-methyl-4-(4-nitrophenyl)-5-oxo-4H,5H-pyrano[3,2-c]chromen-2-yl)-N,N-dimethylformimidamide] | — ((—): inactive (IC50 > 200 μg/mL)) | 31.99 ± 2.45 |  |  | < 15 | 16 | 7.99 | 1.56 | 12.5 |  | < 15 | < 15 | 279 to 281 | < 15 | < 15 | < 15 |
